ChEMBL document CHEMBL4118056, “Antitubercular Activity of Mycelium-Associated Ganoderma Lanostanoids” (J Nat Prod, 2017)
≈ marks a conversion by molar mass, not a printed value.

Legend:
Vero [1] = experiment: Cytotoxicity against African green monkey Vero cells by GFP based microplate assay; assay type: cell-based; details: Chlorocebus sabaeus
[2] = test system: Mycobacterium tuberculosis; experiment: Antitubercular activity against Mycobacterium tuberculosis H37Ra by GFP based microplate assay; assay type: functional
[3] = test system: Mycobacterium tuberculosis; experiment: Antitubercular activity against Mycobacterium tuberculosis H37Ra; assay type: functional
Vero [4] = experiment: Cytotoxicity against African green monkey Vero cells; assay type: cell-based; details: Chlorocebus sabaeus

SMILES	IC50 (Vero [1])	MIC [2]	MIC [3]	IC50 (Vero [4])
CC(=O)O[C@H]1CC[C@]2(C)C3=C([C@H](O)C[C@H]2C1(C)C)[C@]1(C)[C@@H](O)C[C@H]([C@H](C)CC/C=C(\C)C(=O)O)[C@@]1(C)CC3	39 µM	50 µg/mL (≈ 94.2 µM)		
CC(=O)O[C@H]1C[C@H]([C@H](C)CC/C=C(\C)C(=O)O)[C@@]2(C)CCC3=C(CC[C@H]4C(C)(C)C(=O)CC[C@]34C)[C@]12C	> 98 µM	50 µg/mL (≈ 97.5 µM)		
CO[C@@H]1C[C@H]2C(C)(C)[C@H](OC(C)=O)CC[C@]2(C)C2=C1[C@]1(C)[C@@H](OC(C)=O)C[C@H]([C@H](C)[C@H](C/C=C(\C)C(=O)O)OC(C)=O)[C@@]1(C)CC2	26 µM	12.5 µg/mL (≈ 19.4 µM)		
CO[C@@H]1C[C@H]2C(C)(C)[C@H](OC(C)=O)CC[C@]2(C)C2=C1[C@]1(C)[C@@H](OC(C)=O)C[C@H]([C@H](C)CC/C=C(\C)C(=O)O)[C@@]1(C)CC2	> 85 µM	50 µg/mL (≈ 85.2 µM)		
CO[C@@H]1C[C@H]2C(C)(C)[C@H](OC(C)=O)CC[C@]2(C)C2=C1[C@]1(C)[C@@H](O)C[C@H]([C@H](C)CC/C=C(\C)C(=O)O)[C@@]1(C)CC2	87 µM	50 µg/mL (≈ 91.8 µM)		
CO[C@@H]1C[C@H]2C(C)(C)C(=O)CC[C@]2(C)C2=C1[C@]1(C)CC[C@H]([C@H](C)CC/C=C(\C)C(=O)O)[C@@]1(C)CC2	> 103 µM	25 µg/mL (≈ 51.6 µM)		
CC(=O)O[C@H]1C[C@H]([C@H](C)CC/C=C(\C)C(=O)O)[C@@]2(C)CC=C3C(=CC[C@H]4C(C)(C)[C@H](O)CC[C@]34C)[C@]12C	94 µM	25 µg/mL (≈ 48.8 µM)		
CC(=O)O[C@@H](C/C=C(\C)C(=O)O)[C@@H](C)[C@H]1C[C@H](OC(C)=O)[C@@]2(C)C3=C(CC[C@]12C)[C@@]1(C)CC[C@@H](OC(C)=O)C(C)(C)[C@@H]1C[C@H]3O	28 µM	12.5 µg/mL (≈ 19.8 µM)		
CC(=O)O[C@@H]1C[C@H]2C(C)(C)C(=O)CC[C@]2(C)C2=C1[C@]1(C)[C@@H](O)C[C@H]([C@H](C)CC/C=C(\C)C(=O)O)[C@@]1(C)CC2	> 95 µM	25 µg/mL (≈ 47.3 µM)		
C/C(=C\C[C@H](O)[C@@H](C)[C@H]1CC[C@@]2(C)C3=C(CC[C@]12C)[C@@]1(C)CCC(=O)C(C)(C)[C@@H]1CC3)C(=O)O	105 µM	50 µg/mL (≈ 106 µM)		
CC(=O)O[C@H]1CC[C@]2(C)C3=CC[C@]4(C)[C@@H]([C@H](C)CC/C=C(\C)C(=O)O)C[C@H](O)[C@@]4(C)C3=CC[C@H]2C1(C)C	13 µM	6.25 µg/mL (≈ 12.2 µM)		
CO[C@@H]1C[C@H]2C(C)(C)[C@H](OC(C)=O)CC[C@]2(C)C2=C1[C@]1(C)CC[C@H]([C@H](C)[C@H](C/C=C(\C)C(=O)O)OC(C)=O)[C@@]1(C)CC2	38 µM	50 µg/mL (≈ 85.2 µM)		
CO[C@@H]1C[C@H]2C(C)(C)[C@@H](OC(C)=O)CC[C@]2(C)C2=C1[C@]1(C)[C@@H](OC(C)=O)C[C@H]([C@H](C)CC/C=C(\C)C(=O)O)[C@@]1(C)CC2	30 µM	3.13 µg/mL (≈ 5.33 µM)		
CC(=O)O[C@H]1CC[C@]2(C)C3=C(C(=O)C[C@H]2C1(C)C)[C@]1(C)[C@@H](O)C[C@H]([C@H](C)CC/C=C(\C)C(=O)O)[C@@]1(C)CC3	92 µM	50 µg/mL (≈ 94.6 µM)		
CC(=O)O[C@@H](C/C=C(\C)C(=O)O)[C@@H](C)[C@H]1C[C@H](O)[C@@]2(C)C3=C(CC[C@]12C)[C@@]1(C)CCC(=O)C(C)(C)[C@@H]1C[C@H]3O	> 92 µM	> 50 µg/mL		
CC(=O)O[C@@H](C/C=C(\C)C(=O)O)[C@@H](C)[C@H]1CC[C@@]2(C)C3=CC[C@H]4C(C)(C)[C@H](OC(C)=O)CC[C@]4(C)C3=CC[C@]12C	32 µM	50 µg/mL (≈ 90.1 µM)		
CC(=O)O[C@@H](C/C=C(\C)C(=O)O)[C@@H](C)[C@H]1C[C@H](OC(C)=O)[C@@]2(C)C3=CC[C@H]4C(C)(C)C(=O)CC[C@]4(C)C3=CC[C@]12C	87 µM	25 µg/mL (≈ 44 µM)		

SMILES	IC50 (Vero [1])	MIC [2]	MIC [3]	IC50 (Vero [4])
CC(=O)O[C@@H](C/C=C(\C)C(=O)O)[C@@H](C)[C@H]1CC[C@@]2(C)C3=C(CC[C@]12C)[C@@]1(C)CC[C@H](O)C(C)(C)[C@@H]1CC3=O	87 µM	1.56 µg/mL (≈ 2.95 µM)		
CC(=O)O[C@H]1C[C@H]([C@H](C)CC/C=C(\C)C(=O)O)[C@@]2(C)CCC3=C(CC[C@H]4C(C)(C)[C@@H](O)CC[C@]34C)[C@]12C	> 96 µM	12.5 µg/mL (≈ 24.3 µM)		
C/C(=C\CC[C@@H](C)[C@H]1CC[C@@]2(C)C3=C(CC[C@]12C)[C@@]1(C)CCC(=O)C(C)(C)[C@@H]1C[C@H]3O)C(=O)O	103 µM	3.13 µg/mL (≈ 6.65 µM)		
CC(=O)O[C@H]1C[C@H]([C@H](C)CC/C=C(\C)C(=O)O)[C@@]2(C)CC=C3C(=CC[C@H]4C(C)(C)C(=O)CC[C@]34C)[C@]12C	> 98 µM	12.5 µg/mL (≈ 24.5 µM)		
CO[C@@H]1C[C@H]2C(C)(C)[C@@H](OC(C)=O)CC[C@]2(C)C2=C1[C@]1(C)[C@@H](O)C[C@H]([C@H](C)[C@H](C/C=C(\C)C(=O)O)OC(C)=O)[C@@]1(C)CC2			50 µg/mL (≈ 82.9 µM)	32 µM
CC(=O)O[C@@H](C/C=C(\C)C(=O)O)[C@@H](C)[C@H]1C[C@H](OC(C)=O)[C@@]2(C)C3=CC[C@H]4C(C)(C)[C@@H](O)CC[C@]4(C)C3=CC[C@]12C	33 µM	> 50 µg/mL		
CC(=O)O[C@@H](C/C=C(\C)C(=O)O)[C@@H](C)[C@H]1C[C@H](O)[C@@]2(C)C3=C(CC[C@]12C)[C@@]1(C)CC[C@H](OC(C)=O)C(C)(C)[C@@H]1C[C@H]3O	83 µM	12.5 µg/mL (≈ 21.2 µM)		
CC(=O)O[C@@H](C/C=C(\C)C(=O)O)[C@@H](C)[C@H]1CC[C@@]2(C)C3=C(CC[C@]12C)[C@@]1(C)CC[C@@H](O)C(C)(C)[C@@H]1CC3=O	95 µM	50 µg/mL (≈ 94.6 µM)		
CC(=O)O[C@@H](C/C=C(\C)C(=O)O)[C@@H](C)[C@H]1CC[C@@]2(C)C3=C(CC[C@]12C)[C@@]1(C)CC[C@H](OC(C)=O)C(C)(C)[C@@H]1CC3=O	32 µM	6.25 µg/mL (≈ 11 µM)		
CC(=O)O[C@@H](C/C=C(\C)C(=O)O)[C@@H](C)[C@H]1CC[C@@]2(C)C3=C(CC[C@]12C)[C@@]1(C)CC[C@H](OC(C)=O)C(C)(C)[C@@H]1C[C@H]3O	84 µM	25 µg/mL (≈ 43.6 µM)		
CC(=O)O[C@@H](C/C=C(\C)C(=O)O)[C@@H](C)[C@H]1C[C@H](O)[C@@]2(C)C3=CC[C@H]4C(C)(C)[C@@H](O)CC[C@]4(C)C3=CC[C@]12C	95 µM	6.25 µg/mL (≈ 11.8 µM)		
CO[C@@H]1C[C@H]2C(C)(C)C(=O)CC[C@]2(C)C2=C1[C@]1(C)[C@@H](OC(C)=O)C[C@H]([C@H](C)[C@H](C/C=C(\C)C(=O)O)OC(C)=O)[C@@]1(C)CC2	> 83 µM	> 50 µg/mL		
CC(=O)O[C@H]1CC[C@]2(C)C3=C([C@H](OC(C)=O)C[C@H]2C1(C)C)[C@]1(C)[C@@H](O)C[C@H]([C@H](C)CC/C=C(\C)C(=O)O)[C@@]1(C)CC3	31 µM	25 µg/mL (≈ 43.6 µM)		
CC(=O)O[C@H]1CC[C@]2(C)C3=CC[C@]4(C)[C@@H]([C@H](C)CC/C=C(\C)C(=O)O)CC[C@@]4(C)C3=CC[C@H]2C1(C)C	> 101 µM	> 50 µg/mL		
CC(=O)O[C@H]1CC[C@]2(C)C3=CC[C@]4(C)[C@@H]([C@H](C)CC/C=C(\C)C(=O)O)C[C@H](OC(C)=O)[C@@]4(C)C3=CC[C@H]2C1(C)C	32 µM	0.391 µg/mL (≈ 0.705 µM)		
CC(=O)O[C@@H](C/C=C(\C)C(=O)O)[C@@H](C)[C@H]1C[C@H](O)[C@@]2(C)C3=C(CC[C@]12C)[C@@]1(C)CC[C@H](OC(C)=O)C(C)(C)[C@@H]1C[C@H]3OC(C)=O	77 µM	12.5 µg/mL (≈ 19.8 µM)		
CC(=O)O[C@H]1C[C@H]([C@H](C)CC/C=C(\C)C(=O)O)[C@@]2(C)CCC3=C([C@H](O)C[C@H]4C(C)(C)C(=O)CC[C@]34C)[C@]12C	> 95 µM	50 µg/mL (≈ 94.6 µM)		
